System: CD1 female mouse brain lipidome
Assay: Brain-region lipid levels (HPLC/MS/MS lipidomics) 2 h after single i.p. 3 mg/kg CP 55,940 vs vehicle
Format: in vivo
Experimental: The Bloomington Institutional Animal Care and Use Committee of Indiana University reviewed and approved the animal procedures. Female mice from the CD1 strain were utilized to match our study examining THC’s effects on the brain lipidome ([Leishman et al., 2018]). Mice were given a single i.p. injection of either 3 mg/kg CP or 1:1:18 cremophor:ethanol:saline vehicle (please refer to the section “3 mg/kg CP Is Relevant for Synthetic Cannabinoid Abuse and Has Stronger Effects on the Female Mouse Brain Lipidome During Adolescence” for a justification of dose and use of female mice). Three different age groups were given injections: PND 35 and PND 50 adolescents, and adult mice (PND 113). At least eight mice in each age group received CP and at least eight received vehicle. Matching the THC study time course ([Leishman et al., 2018]), mice were sacrificed via rapid decapitation 2 h after injection. Brains were immediately removed and flash-frozen in liquid nitrogen, and then stored at -80°C until dissections were performed. Brains were dissected on an ice-cold dissection plate into the following regions: STR, HIPP, CER, THAL, CTX, HYP, MID, and STEM. These abbreviations for these brain areas will be used exclusively when discussing the results generated by these specific dissections. Each dissected area was immediately placed in liquid nitrogen and then stored at -80°C until used for lipid extraction.
Tissue extracts were performed as previously described ([Bradshaw et al., 2006]; [Stuart et al., 2013]; [Raboune et al., 2014]; [Leishman et al., 2016a],[b], [2017], [2018]). First, samples were shock frozen in liquid nitrogen, weighed, and transferred to a centrifuge tube. The mass of the largest sample was multiplied by 50 to determine how many milliliters of HPLC-grade methanol (Fisher, Fair Lawn, NJ, United States) to add. Then, samples were spiked with 500 pmol deuterium-labeled NAGly (d8NAGly; Cayman Chemical, Ann Arbor, MI, United States). Samples were placed on ice in darkness for 2 h then individually homogenized and centrifuged at 19,000 × g for 20 min at 20°C. Supernatants were diluted with HPLC water (purified in house) to make a solution of 75% water, 25% supernatant. Lipids were partially purified on C18 solid phase extraction columns (Agilent, Palo Alto, CA, United States). A series of four elutions with 1.5 mL of 60%, 75%, 85%, and 100% methanol were collected ([Stuart et al., 2013]; [Leishman et al., 2016a],[b], [2018]).
As previously described ([Bradshaw et al., 2006]; [Tan et al., 2006]; [Smoum et al., 2010]; [Stuart et al., 2013]; [Tortoriello et al., 2013]; [Raboune et al., 2014]; [Leishman et al., 2016a],[b], [2017], [2018]), samples were analyzed using an Applied Biosystems API 3000 triple quadrupole mass spectrometer with electrospray ionization (Foster City, CA, United States). Using an Agilent XDB-C18 reversed phase analytical column and optimized mobile phase gradients, 20 μL from each elution were chromatographed. Two Shimadzu 10ADvp pumps (Columbia, MD, United States) provided the pressure for gradient elution. Mobile phase A: 20% methanol, 80% water (v/v) and 1 mM ammonium acetate (Sigma, St. Louis, MO, United States). Mobile phase B: 100% methanol, 1 mM ammonium acetate. Every method run began with 0% mobile phase B, reached 100% mobile phase B flowing at 0.2 mL/min, and gradually returned to 0% mobile phase B.
This screening library will be referred to as the lipidome when discussing data from this study. HPLC/MS/MS data were analyzed using Analyst software (Applied Biosystems) ([Bradshaw et al., 2006]; [Tan et al., 2006]; [Stuart et al., 2013]; [Tortoriello et al., 2013]; [Raboune et al., 2014]; [Leishman et al., 2016a],[b], [2017], [2018]). Chromatograms (Supplementary Figure 3) were generated by determining the retention time of analytes from the analytical column with a [M-1] or [M+1] parent peak and a fragmentation peak corresponding to the programmed values. […]

[1] = PND 35 midbrain, 3mg/kg, one-way ANOVA

CCCCCCC(C)(C)c1ccc([C@@H]2C[C@H](O)CC[C@H]2CCCO)c(O)c1 [CP 55,940]
N-docosahexaenoyl methionine: Magnitude (x Veh level) (PND 35 midbrain, 3mg/kg): 0.77 x Veh level
N-docosahexaenoyl serine: Magnitude (x Veh level) (PND 35 midbrain, 3mg/kg): 0.77 x Veh level
N-docosahexaenoyl tyrosine: Magnitude (x Veh level) (PND 35 midbrain, 3mg/kg): 0.79 x Veh level
N-docosahexaenoyl valine: Magnitude (x Veh level) (PND 35 midbrain, 3mg/kg): 1.67 x Veh level
N-linoleoyl ethanolamine: Magnitude (x Veh level) (PND 35 midbrain, 3mg/kg): 1.24 x Veh level
N-oleoyl GABA: Magnitude (x Veh level) (PND 35 midbrain, 3mg/kg): 0.81 x Veh level
N-oleoyl ethanolamine: Magnitude (x Veh level) (PND 35 midbrain, 3mg/kg): 0.85 x Veh level
N-oleoyl phenylalanine: Magnitude (x Veh level) (PND 35 midbrain, 3mg/kg): 1.11 x Veh level
N-oleoyl valine: Magnitude (x Veh level) (PND 35 midbrain, 3mg/kg): 1.48 x Veh level
N-palmitoyl leucine: Magnitude (x Veh level) (PND 35 midbrain, 3mg/kg): 1.40 x Veh level
N-palmitoyl phenylalanine: Magnitude (x Veh level) (PND 35 midbrain, 3mg/kg): 1.31 x Veh level
N-palmitoyl valine: Magnitude (x Veh level) (PND 35 midbrain, 3mg/kg): 1.83 x Veh level
N-stearoyl methionine: Magnitude (x Veh level) (PND 35 midbrain, 3mg/kg): 1.15 x Veh level
N-stearoyl tyrosine: Magnitude (x Veh level) (PND 35 midbrain, 3mg/kg): 0.82 x Veh level
N-stearoyl valine: Magnitude (x Veh level) (PND 35 midbrain, 3mg/kg): 1.40 x Veh level
PGE2: Magnitude (x Veh level) (PND 35 midbrain, 3mg/kg): 1.15 x Veh level
PGF2α: Magnitude (x Veh level) (PND 35 midbrain, 3mg/kg): 1.22 x Veh level
phoshoLEA: Magnitude (x Veh level) (PND 35 midbrain, 3mg/kg): 1.41 x Veh level
2-linoleoyl glycerol: Direction (rel to Veh) [1]: ↓
6-ketoPGF1α: Direction (rel to Veh) [1]: ↓
Arachidonic acid: Direction (rel to Veh) [1]: ↓
N-arachidonoyl GABA: Direction (rel to Veh) [1]: ↓
N-arachidonoyl alanine: Direction (rel to Veh) [1]: ↓
N-arachidonoyl glycine: Direction (rel to Veh) [1]: ↓
N-arachidonoyl serine: Direction (rel to Veh) [1]: ↓
N-arachidonoyl taurine: Direction (rel to Veh) [1]: ↓
N-arachidonoyl tyrosine: Direction (rel to Veh) [1]: ↓
N-docosahexaenoyl GABA: Direction (rel to Veh) [1]: ↓
N-docosahexaenoyl alanine: Direction (rel to Veh) [1]: ↓
N-docosahexaenoyl glycine: Direction (rel to Veh) [1]: ↓
N-docosahexaenoyl leucine: Direction (rel to Veh) [1]: ↑
N-docosahexaenoyl methionine: Direction (rel to Veh) [1]: ↓
N-docosahexaenoyl serine: Direction (rel to Veh) [1]: ↓
N-docosahexaenoyl tyrosine: Direction (rel to Veh) [1]: ↓
N-docosahexaenoyl valine: Direction (rel to Veh) [1]: ↑
N-linoleoyl ethanolamine: Direction (rel to Veh) [1]: ↑
N-oleoyl GABA: Direction (rel to Veh) [1]: ↓
N-oleoyl ethanolamine: Direction (rel to Veh) [1]: ↓
N-oleoyl phenylalanine: Direction (rel to Veh) [1]: ↑
N-oleoyl valine: Direction (rel to Veh) [1]: ↑
N-palmitoyl leucine: Direction (rel to Veh) [1]: ↑
N-palmitoyl phenylalanine: Direction (rel to Veh) [1]: ↑
N-palmitoyl valine: Direction (rel to Veh) [1]: ↑
N-stearoyl methionine: Direction (rel to Veh) [1]: ↑
N-stearoyl tyrosine: Direction (rel to Veh) [1]: ↓
N-stearoyl valine: Direction (rel to Veh) [1]: ↑
PGE2: Direction (rel to Veh) [1]: ↑
PGF2α: Direction (rel to Veh) [1]: ↑
phoshoLEA: Direction (rel to Veh) [1]: ↑
2-arachidonoyl-sn-glycerol mean level (PND 35 striatum): 8.26E-11 moles per gram
2-linoleoyl-sn-glycerol mean level (PND 35 striatum): 6.79E-11 moles per gram
2-oleoyl-sn-glycerol mean level (PND 35 striatum): 6.52E-10 moles per gram
2-palmitoyl-sn-glycerol mean level (PND 35 striatum): 3.66E-10 moles per gram
6-ketoPGF1α mean level (PND 35 striatum): 5.31E-12 moles per gram
Arachidonic acid mean level (PND 35 striatum): 1.87E-09 moles per gram
Linoleic acid mean level (PND 35 striatum): 4.78E-10 moles per gram
N- stearoyl valine mean level (PND 35 striatum): 4.54E-13 moles per gram
N-arachidonoyl GABA mean level (PND 35 striatum): 7.34E-12 moles per gram
N-arachidonoyl alanine mean level (PND 35 striatum): 7.95E-12 moles per gram
N-arachidonoyl ethanolamine mean level (PND 35 striatum): 1.25E-11 moles per gram
N-arachidonoyl glycine mean level (PND 35 striatum): 2.49E-11 moles per gram
N-arachidonoyl phenylalanine mean level (PND 35 striatum): 5.08E-13 moles per gram
N-arachidonoyl serine mean level (PND 35 striatum): 2.14E-12 moles per gram
N-arachidonoyl taurine mean level (PND 35 striatum): 4.32E-11 moles per gram
N-arachidonoyl tyrosine mean level (PND 35 striatum): 3.18E-13 moles per gram
N-docosahexaenoyl GABA mean level (PND 35 striatum): 7.6E-13 moles per gram
N-docosahexaenoyl alanine mean level (PND 35 striatum): 3E-12 moles per gram
N-docosahexaenoyl ethanolamine mean level (PND 35 striatum): 1.6E-11 moles per gram
N-docosahexaenoyl glycine mean level (PND 35 striatum): 1.04E-11 moles per gram
N-docosahexaenoyl leucine mean level (PND 35 striatum): 5.34E-13 moles per gram
N-docosahexaenoyl phenylalanine mean level (PND 35 striatum): 5.57E-13 moles per gram
N-docosahexaenoyl serine mean level (PND 35 striatum): 9.97E-12 moles per gram
N-linoleoyl alanine mean level (PND 35 striatum): 1.57E-12 moles per gram
N-linoleoyl ethanolamine mean level (PND 35 striatum): 3.02E-11 moles per gram
N-linoleoyl glycine mean level (PND 35 striatum): 1.9E-12 moles per gram
N-linoleoyl serine mean level (PND 35 striatum): 4.58E-11 moles per gram
N-oleoyl GABA mean level (PND 35 striatum): 1.45E-12 moles per gram
N-oleoyl alanine mean level (PND 35 striatum): 6.67E-12 moles per gram
N-oleoyl ethanolamine mean level (PND 35 striatum): 6.1E-11 moles per gram
N-oleoyl glycine mean level (PND 35 striatum): 1.1E-11 moles per gram
N-oleoyl leucine mean level (PND 35 striatum): 1.08E-12 moles per gram
N-oleoyl methionine mean level (PND 35 striatum): 9.72E-13 moles per gram
N-oleoyl phenylalanine mean level (PND 35 striatum): 6.72E-13 moles per gram
N-oleoyl serine mean level (PND 35 striatum): 2.35E-10 moles per gram
N-oleoyl tyrosine mean level (PND 35 striatum): 1.91E-13 moles per gram
N-oleoyl valine mean level (PND 35 striatum): 3.53E-13 moles per gram
N-palmitoyl GABA mean level (PND 35 striatum): 3.96E-12 moles per gram
N-palmitoyl alanine mean level (PND 35 striatum): 1.47E-11 moles per gram
N-palmitoyl ethanolamine mean level (PND 35 striatum): 3.18E-11 moles per gram
N-palmitoyl glycine mean level (PND 35 striatum): 2.93E-11 moles per gram
N-palmitoyl leucine mean level (PND 35 striatum): 2.54E-12 moles per gram
N-palmitoyl methionine mean level (PND 35 striatum): 1.86E-12 moles per gram
N-palmitoyl phenylalanine mean level (PND 35 striatum): 1.48E-12 moles per gram
N-palmitoyl proline mean level (PND 35 striatum): 1.03E-12 moles per gram
N-palmitoyl serine mean level (PND 35 striatum): 3.33E-11 moles per gram
N-palmitoyl tryptophan mean level (PND 35 striatum): 2.09E-13 moles per gram
N-palmitoyl tyrosine mean level (PND 35 striatum): 3.84E-13 moles per gram
N-palmitoyl valine mean level (PND 35 striatum): 9.76E-13 moles per gram
N-stearoyl GABA mean level (PND 35 striatum): 3.5E-12 moles per gram
N-stearoyl alanine mean level (PND 35 striatum): 1.12E-11 moles per gram
N-stearoyl ethanolamine mean level (PND 35 striatum): 9E-12 moles per gram
N-stearoyl glycine mean level (PND 35 striatum): 1.64E-11 moles per gram

— paper PMC6277767, “Broad and Region-Specific Impacts of the Synthetic Cannabinoid CP 55,940 in Adolescent and Adult Female Mouse Brains” (Frontiers in Molecular Neuroscience, 2018)
